Measurements as given in ChEMBL document CHEMBL2417489, “A structure-activity relationship study of 1,2,4-triazolo[1,5-a][1,3,5]triazin-5,7-dione and its 5-thioxo analogues on anti-thymidine phosphorylase and associated anti-angiogenic activities” (Eur J Med Chem, 2013).
Calls of active or inactive are those of the source. The rule behind the calls is not given here.

Tests used:
MDA-MB-231 [1] = conditions: Homo sapiens, 25 to 200 uM
Description: Antiangiogenic activity in human MDA-MB-231 cells assessed as inhibition of VEGF protein expression at 25 to 200 uM after 24 hrs by ELISA relative to vehicle-treated control

MDA-MB-231 [2] = conditions: Homo sapiens, 200 uM
Description: Antiangiogenic activity in human MDA-MB-231 cells assessed as inhibition of PMA-induced MMP-9 expression at 200 uM after 24 hrs by gelatine zymography relative to vehicle-treated control

MDA-MB-231 [3] = conditions: Homo sapiens, 50 to 100 uM
Description: Antiangiogenic activity in human MDA-MB-231 cells assessed as inhibition of PMA-induced MMP-9 expression at 50 to 100 uM after 24 hrs by densitometric analysis relative to vehicle-treated control

Thymidine phosphorylase = target: T1, Thymidine phosphorylase (Homo sapiens, UniProt P19971); test: Inhibition of human recombinant thymidine phosphorylase expressed in Escherichia coli using thymidine as substrate after 4 to 20 mins by spectrophotometry
T1 sequence (P19971 whole entry): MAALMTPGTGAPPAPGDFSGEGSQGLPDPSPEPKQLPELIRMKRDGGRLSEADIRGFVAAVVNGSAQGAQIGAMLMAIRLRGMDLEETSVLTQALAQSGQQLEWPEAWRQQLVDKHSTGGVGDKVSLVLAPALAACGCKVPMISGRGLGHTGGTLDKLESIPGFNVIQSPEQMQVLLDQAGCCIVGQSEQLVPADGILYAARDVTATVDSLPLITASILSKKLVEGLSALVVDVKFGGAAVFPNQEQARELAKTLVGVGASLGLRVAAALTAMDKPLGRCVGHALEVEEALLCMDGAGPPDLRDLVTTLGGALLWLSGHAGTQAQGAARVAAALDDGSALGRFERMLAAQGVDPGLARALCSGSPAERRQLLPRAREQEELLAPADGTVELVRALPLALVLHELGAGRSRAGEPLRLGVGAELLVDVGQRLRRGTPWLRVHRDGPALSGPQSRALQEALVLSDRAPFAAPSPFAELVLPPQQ

MDA-MB-231 [4] = conditions: Homo sapiens, 100 to 200 uM
Description: Antiangiogenic activity in human MDA-MB-231 cells assessed as inhibition of PMA-induced MMP-9 expression at 100 to 200 uM after 24 hrs by densitometric analysis relative to vehicle-treated control

| Structure (SMILES) | inhibition (MDA-MB-231 [1]) | inhibition (MDA-MB-231 [2]) | inhibition (MDA-MB-231 [3]) | IC50 (Thymidine phosphorylase) [µM] | inhibition (MDA-MB-231 [4]) |
| --- | --- | --- | --- | --- | --- |
| O=c1[nH]c(=S)[nH]c2nc(Cc3ccc(Cl)c(Cl)c3)nn12 | Active | Active | inactive | – | – |
| O=c1[nH]c(=O)n2nc(Cc3ccccc3)nc2[nH]1 | – | – | – | > 100 | – |
| O=c1[nH]c(=O)n2nc(-c3ccccc3)nc2[nH]1 | – | – | – | > 100 | – |
| O=c1[nH]c(=S)[nH]c2nc(-c3ccc(Cl)c(Cl)c3)nn12 | Active | Active | – | – | Active |
| Cc1cc(-c2nc3[nH]c(=S)[nH]c(=O)n3n2)ccc1Br | Active | Active | – | – | Active |
